Data as given in US20250195521A1 (Revolution Medicines, Inc., priority 2020, published 2025).
Like-named read-outs stand apart in the source and are kept apart here.

Tests used:
[1] = molecular target: KRAS G13D (Homo sapiens (Human), UniProt P01116+P62937, G13D); assay: Ras-Raf disruption/FRET/MOA assay (BRAF RBD, Cyclophilin A); type: biochemical; settings: read-out: KRAS G13D FRET data IC50
Protocol: (§1) Compound is present in plate wells as a 10-point 3-fold dilution series starting at a final concentration of 30 μM. After incubation at 25° C. for 3 hours, a mixture of Anti-His Eu—W1024 and anti-GST allophycocyanin is then added to assay sample wells at final concentrations of 10 nM and 50 nM, respectively, and the reaction incubated for an additional 1.5 hours. […] Compounds that facilitate disruption of a Ras: RAF complex are identified as those eliciting a decrease in the TR-FRET ratio relative to DMSO control wells.
(§2) Disruption of B-Raf Ras-Binding Domain (BRAF^RBD) Interaction with K-Ras by Compounds of the Invention (Also Called a FRET Assay or an MOA Assay)
(§3) Note—The following protocol describes a procedure for monitoring disruption of K-Ras G12C (GMP-PNP) binding to BRAF^RBD by a compound of the invention. This protocol may also be executed substituting other Ras proteins or nucleotides.
(§4) The purpose of this biochemical assay was to measure the ability of test compounds to facilitate ternary complex formation between a nucleotide-loaded K-Ras isoform and Cyclophilin A; the resulting ternary complex disrupts binding to a BRAF^RBD construct, inhibiting K-Ras signaling through a RAF effector. Data is reported as IC50 values.
(§5) In assay buffer containing 25 mM HEPES pH 7.3, 0.002% Tween20, 0.1% BSA, 100 mM NaCl and 5 mM MgCl2, tagless Cyclophilin A, His6-K-Ras-GMPPNP, and GST-BRAF^RBD were combined in a 384-well assay plate at final concentrations of 25 μM, 12.5 nM and 50 nM, respectively. Compound was present in plate wells as a 10-point 3-fold dilution series starting at a final concentration of 30 μM. After incubation at 25° C. for 3 hours, a mixture of Anti-His Eu—W1024 and anti-GST allophycocyanin was then added to assay sample wells at final concentrations of 10 nM and 50 nM, respectively, and the reaction incubated for an additional 1.5 hours. […] Compounds that facilitate disruption of a K-Ras: RAF complex were identified as those eliciting a decrease in the TR-FRET ratio relative to DMSO control wells.

[2] = molecular target: NRAS G12C (Homo sapiens (Human), UniProt P01111+P62937, G12C); assay: as above; type: biochemical; settings: read-out: NRAS G12C FRET data IC50
Sequence of NRAS G12C (P01111 whole entry G12C): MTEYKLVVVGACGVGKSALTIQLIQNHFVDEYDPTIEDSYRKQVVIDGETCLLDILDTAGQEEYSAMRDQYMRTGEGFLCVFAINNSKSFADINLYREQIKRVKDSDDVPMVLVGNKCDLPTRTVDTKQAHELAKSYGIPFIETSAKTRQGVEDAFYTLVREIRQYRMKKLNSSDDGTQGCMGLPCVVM
Sequence of NRAS G12C (P62937 whole entry): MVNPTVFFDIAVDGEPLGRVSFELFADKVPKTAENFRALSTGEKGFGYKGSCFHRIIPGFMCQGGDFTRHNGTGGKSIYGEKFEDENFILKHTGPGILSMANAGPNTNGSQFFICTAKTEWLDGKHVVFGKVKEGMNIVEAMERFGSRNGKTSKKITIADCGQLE
Protocol: as §1, §2, §3, §4, §5

[3] = tested on: Capan-1 cells (K-Ras G12V); assay: CellTiter-Glo cell viability, Capan-1; type: cell-based, human; settings: Homo sapiens, CAPAN-1, 120 h, read-out: Capan-1 Cell Viability IC50
Procedure, shortened: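 Endpoint: CellTiter-Glo luminescence on day 5, following ~30 min at room temperature. Data as (sample/mean DMSO)×100, four-parameter logistic fit.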

[4] = molecular target: KRAS G12D (Homo sapiens (Human), UniProt P01116+P62937, G12D); assay: Ras-Raf disruption/FRET/MOA assay (BRAF RBD, Cyclophilin A); type: biochemical; settings: read-out: KRAS G12D FRET IC50
Sequence of KRAS G12D (P01116 other isoform, or with tags, fused parts or gaps G12D): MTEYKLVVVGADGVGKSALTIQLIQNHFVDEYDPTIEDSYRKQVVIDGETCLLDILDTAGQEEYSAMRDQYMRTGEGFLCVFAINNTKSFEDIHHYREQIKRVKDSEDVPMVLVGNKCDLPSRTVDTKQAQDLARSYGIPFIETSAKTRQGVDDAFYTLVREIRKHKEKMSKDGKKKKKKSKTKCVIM
Sequence of KRAS G12D (P62937 whole entry): as the sequence (P62937 whole entry) above
Protocol: as §1, §2, §3, §4, §5

[5] = molecular target: KRAS G12S (Homo sapiens (Human), UniProt P01116+P62937, G12S); assay: as above; type: biochemical; settings: read-out: KRAS G12S FRET IC50
Sequence of KRAS G12S (P01116 other isoform, or with tags, fused parts or gaps G12S): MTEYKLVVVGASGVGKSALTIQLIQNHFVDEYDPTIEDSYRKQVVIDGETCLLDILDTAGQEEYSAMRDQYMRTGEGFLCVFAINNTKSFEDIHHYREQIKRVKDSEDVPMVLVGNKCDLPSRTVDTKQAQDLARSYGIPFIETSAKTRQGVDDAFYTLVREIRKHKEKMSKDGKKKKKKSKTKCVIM
Sequence of KRAS G12S (P62937 whole entry): as the sequence (P62937 whole entry) above
Protocol: as §1, §2, §3, §4, §5

[6] = molecular target: KRAS G12V (Homo sapiens (Human), UniProt P01116+P62937, G12V); assay: as above; type: biochemical; settings: read-out: KRAS G12V FRET IC50
Sequence of KRAS G12V (P01116 other isoform, or with tags, fused parts or gaps G12V): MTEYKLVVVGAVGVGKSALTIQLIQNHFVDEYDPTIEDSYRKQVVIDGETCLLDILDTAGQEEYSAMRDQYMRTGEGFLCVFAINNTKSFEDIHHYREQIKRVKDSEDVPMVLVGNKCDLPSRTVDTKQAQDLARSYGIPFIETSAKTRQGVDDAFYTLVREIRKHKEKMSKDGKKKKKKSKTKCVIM
Sequence of KRAS G12V (P62937 whole entry): as the sequence (P62937 whole entry) above
Protocol: as §1, §2, §3, §4, §5

[7] = molecular target: KRAS G13C (Homo sapiens (Human), UniProt P01116+P62937, G13C); assay: as above; type: biochemical; settings: read-out: KRAS G13C FRET IC50
Sequence of KRAS G13C (P01116 other isoform, or with tags, fused parts or gaps G13C): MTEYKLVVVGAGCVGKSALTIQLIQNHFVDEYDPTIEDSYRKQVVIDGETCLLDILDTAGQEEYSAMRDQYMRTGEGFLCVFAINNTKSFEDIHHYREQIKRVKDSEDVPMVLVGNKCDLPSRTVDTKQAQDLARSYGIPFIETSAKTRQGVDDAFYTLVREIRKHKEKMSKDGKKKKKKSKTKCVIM
Sequence of KRAS G13C (P62937 whole entry): as the sequence (P62937 whole entry) above
Protocol: as §1, §2, §3, §4, §5

[8] = molecular target: KRAS WT (Homo sapiens (Human), UniProt P01116+P62937); assay: as above; type: biochemical; settings: read-out: KRAS WT FRET data IC50
Sequence of KRAS WT (P01116 other isoform, or with tags, fused parts or gaps): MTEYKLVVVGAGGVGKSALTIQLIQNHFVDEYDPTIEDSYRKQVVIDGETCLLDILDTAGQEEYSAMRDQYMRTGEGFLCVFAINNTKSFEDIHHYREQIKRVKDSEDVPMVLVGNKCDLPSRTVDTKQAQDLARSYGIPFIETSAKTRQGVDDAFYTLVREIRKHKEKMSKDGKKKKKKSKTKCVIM
Sequence of KRAS WT (P62937 whole entry): as the sequence (P62937 whole entry) above
Protocol: as §1, §2, §3, §4, §5

[9] = tested on: K-Ras G12C (NCI-H358 cells); assay: Potency assay: pERK in NCI-H358 cells; type: cell-based, human; settings: Homo sapiens; NCI-H358 cells, 4 hours; read-out: pERK EC50 (H358 KRAS G12C)
Procedure, shortened: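 Cells plated the day before were exposed for 4 h at 37° C, 5% CO2 to a 10-point, 3-fold DMSO dilution series (10 mM top stock), in duplicate. Phospho-ERK was read by AlphaLISA SureFire Ultra or by In-Cell Western with DRAQ5 DNA stain, and IC50 came from a 4-parameter sigmoidal fit.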

Sequence of KRAS G13D (P01116 other isoform, or with tags, fused parts or gaps G13D): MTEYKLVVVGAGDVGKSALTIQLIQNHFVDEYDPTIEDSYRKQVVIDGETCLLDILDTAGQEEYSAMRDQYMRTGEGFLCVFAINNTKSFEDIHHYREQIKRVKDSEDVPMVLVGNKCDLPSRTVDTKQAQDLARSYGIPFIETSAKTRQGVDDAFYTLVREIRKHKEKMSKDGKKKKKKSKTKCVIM
Sequence of KRAS G13D (P62937 whole entry): as the sequence (P62937 whole entry) above

| SMILES | IC50 [1] [µM] | IC50 [2] [µM] | IC50 ([3]; K-Ras G12V, 5-day treatment) [µM] | IC50 [4] [µM] | IC50 [5] [µM] | IC50 [6] [µM] | IC50 [7] [µM] | IC50 [8] [µM] | EC50 [9] [µM] | IC50 [3] [µM] |
| --- | --- | --- | --- | --- | --- | --- | --- | --- | --- | --- |
| CCn1c(-c2cnccc2COC)c2c3cc(ccc31)-c1cc(O)cc(c1)C[C@H](NC(=O)[C@H](C(C)C)N(C)C(=O)[C@H]1CCN(C(C)C)C1)C(=O)N1CCC[C@H](N1)C(=O)OCC(C)(C)C2 [Compound A41] | 0.01 to 0.1 | 0.1 to 1 | – | – | – | – | – | – | – | – |
| CCn1c(-c2cccnc2COC)c2c3cc(ccc31)-c1cc(O)cc(c1)C[C@H](NC(=O)[C@H](C(C)C)N(C)C(=O)[C@H](N)CCCNC(=N)N)C(=O)N1CCC[C@H](N1)C(=O)OCC(C)(C)C2 [Compound A48] | 0.1 to 1 | – | – | – | – | – | – | – | – | – |
| CCn1c(-c2cccnc2[C@H](C)OC)c2c3cc(ccc31)-c1cc(O)cc(c1)C[C@H](NS(=O)(=O)N1CCC1)C(=O)N1CCC[C@H](N1)C(=O)OCC(C)(C)C2 [Compound A189] | > 10 | > 10 | > 10 | > 10 | > 10 | > 10 | > 10 | > 10 | – | – |
| CCn1c(-c2cccnc2[C@H](C)OC)c2c3cc(ccc31)-c1cc(O)cc(c1)C[C@H](NS(=O)(=O)C1CS(=O)(=O)C1)C(=O)N1CCC[C@H](N1)C(=O)OCC(C)(C)C2 [Compound A191] | > 10 | > 10 | > 10 | > 10 | > 10 | > 10 | > 10 | > 10 | – | – |
| CCn1c(-c2cccnc2[C@H](C)OC)c2c3cc(ccc31)-c1cc(O)cc(c1)C[C@H](NS(=O)(=O)c1ccc(O)cc1)C(=O)N1CCC[C@H](N1)C(=O)OCC(C)(C)C2 [Compound A195] | > 10 | > 10 | > 10 | > 10 | > 10 | > 10 | > 10 | > 10 | – | – |
| CCn1c(-c2cccnc2[C@H](C)OC)c2c3cc(ccc31)-c1cc(O)cc(c1)C[C@H](NS(=O)(=O)C1CC1)C(=O)N1CCC[C@H](N1)C(=O)OCC(C)(C)C2 [Compound A196] | > 10 | > 10 | > 10 | > 10 | > 10 | > 10 | > 10 | > 10 | – | – |
| CCn1c(-c2cccnc2[C@H](C)OC)c2c3cc(ccc31)-c1cc(O)cc(c1)C[C@H](NS(=O)(=O)c1cn(C)c(C)n1)C(=O)N1CCC[C@H](N1)C(=O)OCC(C)(C)C2 [Compound A197] | > 10 | – | > 10 | > 10 | > 10 | > 10 | – | – | < 5 | – |
| CCn1c(-c2cccnc2[C@H](C)OC)c2c3cc(ccc31)-c1cc(O)cc(c1)C[C@H](NS(=O)(=O)CC1CC1)C(=O)N1CCC[C@H](N1)C(=O)OCC(C)(C)C2 [Compound A200] | > 10 | – | – | > 10 | > 10 | > 10 | – | – | – | 1 to 10 |
| CCn1c(-c2cccnc2[C@H](C)OC)c2c3cc(ccc31)-c1cc(O)cc(c1)C[C@H](NC(=O)[C@H](C(C)C)N(C)C(=O)[C@@H]1CN(C(=O)OC)C[C@@H]1C)C(=O)N1CCC[C@H](N1)C(=O)OCC(C)(C)C2 [Compound A325] | 0.01 to 0.1 | – | 0.01 to 0.1 | 0.01 to 0.1 | 0.01 to 0.1 | – | – | 0.01 to 0.1 | – | – |
| CCn1c(-c2cccnc2[C@H](C)OC)c2c3cc(ccc31)-c1cc(O)cc(c1)C[C@H](NC(=O)[C@H](C(C)C)N(C)C(=O)[C@@H]1CCN(C(=O)OC)[C@@H]1c1ccccc1)C(=O)N1CCC[C@H](N1)C(=O)OCC(C)(C)C2 [Compound A501] | 0.01 to 0.1 | – | 0.1 to 1 | 0.01 to 0.1 | – | – | – | 0.01 to 0.1 | < 5 | – |
